{"source": "patent US8163769B2", "about": "“Antibacterial compounds” (Abbott Laboratories, priority 2002, dated 2012)", "molecular_target": "bacterial protein synthesis (S30 extract from quinolone-succeptable Streptococcus pneumoniae ATCC 46919)", "test": "Translation assay, firefly luciferase reporter system with S30 Streptococcus pneumoniae extract", "format": "biochemical", "conditions": "cell-free S30 Streptococcus pneumoniae extract, luciferase mRNA; read-out: IC50, concentration which caused 50% inhibition of bacterial protein synthesis", "protocol": "Bacterial protein synthesis inhibitory activity of the compounds and the aformentioned commercially-available antibacterials was determined by translation assays performed using the firefly luciferase reporter system described by Murray et al., (2001), “Staphylococcus aureus Cell Extract Transcription-Translation Assay: Firefly Luciferase Reporter System for Evaluating Protein Translation Inhibitors,” Antimicrob. Agents Chemother. 45(6): 1900-1904, replacing the Staphylococcus aureus S30 extract described therein with S30 Streptococcus pneumoniae extract from quinolone-succeptable Streptococcus pneumoniae ATCC 46919, and replacing plasmid coding for the luciferase gene with mRNA (encoding produced by in vitro transcription from the plasmid pAS10rbs3) which encoded the luciferase gene with an upstream Streptococcus pneumoniae promoter and Shine-Dalgarno site."}
{"smiles": "CC(=O)NC[C@H]1CN(c2ccc(N3CCOCC3)c(F)c2)C(=O)O1", "note": "[Linezolid]", "values": [{"measurement": "IC50", "result": "~3000", "unit": "nM"}]}
